Results: ChEMBL document CHEMBL1158735, “Manoyl oxide diterpenoids from Grindelia scorzonerifolia” (2005)
Converted amounts (≈) assume the structure as drawn.

How the values were obtained:
Type in all cases: functional
Spodoptera frugiperda [1] = test: Insecticidal activity against third instar larvae of Spodoptera frugiperda assessed as malformation and mortality at 100 ppm administered through larval diet
Spodoptera frugiperda [2] = test: Effect on feeding preference of third instar larvae of Spodoptera frugiperda assessed as food consumption at 100 ppm administered through larval diet by feeding election test relative to control
Staphylococcus aureus [3] = test: Antibacterial activity against Staphylococcus aureus ATCC 6538P after 24 hrs by broth microdilution method
Staphylococcus aureus [4] = test: Antibacterial activity against methicillin-resistant Staphylococcus aureus F7 after 24 hrs by broth microdilution method

## C=C[C@@]1(C)CC[C@@H]2[C@@]3(C)CCC[C@@](C)(CO[C@@H]4OC[C@H](O)[C@H](O)[C@H]4O)[C@@H]3CC[C@@]2(C)O1
Spodoptera frugiperda [1]
  Activity: 80%
Spodoptera frugiperda [2]
  Activity: 1
Staphylococcus aureus [3]
  MIC: 2000 µg/mL (≈ 4.56 mM)
Staphylococcus aureus [4]
  MIC: 1250 µg/mL (≈ 2.85 mM)
